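These data come from cells grown in 96-well plates and exposed to compound for 48 hours at five concentrations. GI50 = concentration required for 50% inhibition of growth.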 Calls of active or inactive are those of the source. Rule as the data show it: active = GI50 up to about 1.1 µM and inactive = higher.
Legend:
Experiment in all cases: NCI-60 cell line screen, 48 h
786-0 = test system: 786-0
A498 = test system: A498
A549 = test system: A549
ACHN = test system: ACHN
CAKI-1 = test system: CAKI-1
CCRF-CEM = test system: CCRF-CEM
COLO 205 = test system: COLO 205
DLD-1 = test system: DLD-1
DMS-114 = test system: DMS-114
DMS-273 = test system: DMS-273
EKVX = test system: EKVX
HCC 2998 = test system: HCC 2998
HCT-116 = test system: HCT-116
HCT-15 = test system: HCT-15
HL-60 = test system: HL-60
HOP-18 = test system: HOP-18
HOP-62 = test system: HOP-62
HOP-92 = test system: HOP-92
HT-29 = test system: HT-29
IGROV-1 = test system: IGROV-1
K562 = test system: K562
KM-20L2 = test system: KM-20L2
KM12 = test system: KM12
LOX IMVI = test system: LOX IMVI
LXFL 529 = test system: LXFL 529
M14 = test system: M14
M19-MEL = test system: M19-MEL
MOLT-4 = test system: MOLT-4
Malme-3M = test system: Malme-3M
NCI-H226 = test system: NCI-H226
NCI-H23 = test system: NCI-H23
NCI-H460 = test system: NCI-H460
NCI-H522 = test system: NCI-H522
OVCAR-3 = test system: OVCAR-3
OVCAR-4 = test system: OVCAR-4
OVCAR-5 = test system: OVCAR-5
OVCAR-8 = test system: OVCAR-8
RXF 393 = test system: RXF 393
RXF 631 = test system: RXF 631
SF-268 = test system: SF-268
SF-295 = test system: SF-295
SF-539 = test system: SF-539
SK-MEL-28 = test system: SK-MEL-28
SK-MEL-2 = test system: SK-MEL-2
SK-MEL-5 = test system: SK-MEL-5
SK-OV-3 = test system: SK-OV-3
SN12C = test system: SN12C
SNB-19 = test system: SNB-19
SNB-75 = test system: SNB-75
SNB-78 = test system: SNB-78
SR = test system: SR
TK-10 = test system: TK-10
U-251 = test system: U-251
UACC-257 = test system: UACC-257
UACC-62 = test system: UACC-62
UO-31 = test system: UO-31
XF498 = test system: XF498
RPMI-8226 = test system: RPMI-8226
SW-620 = test system: SW-620

Measured: GI50

CC1(C)C(=NNC(=O)C[N+](C)(C)C)C(C)(C)C1=NNC(=O)C[N+](C)(C)C
inactive: 786-0 > 100 µM | A498 > 100 µM | A549 > 100 µM | ACHN > 100 µM | CAKI-1 > 100 µM | CCRF-CEM > 100 µM | COLO 205 > 100 µM | DLD-1 > 100 µM | DMS-114 > 100 µM | DMS-273 42.2 µM | EKVX > 100 µM | HCC 2998 > 100 µM | HCT-116 > 100 µM | HL-60 > 100 µM | HOP-18 > 100 µM | HOP-62 > 100 µM | HOP-92 > 100 µM | HT-29 > 100 µM | IGROV-1 > 100 µM | K562 > 100 µM | KM-20L2 > 100 µM | KM12 > 100 µM | LOX IMVI 72.9 µM | LXFL 529 > 100 µM | M14 > 100 µM | M19-MEL > 100 µM | MOLT-4 > 100 µM | Malme-3M > 100 µM | NCI-H226 > 100 µM | NCI-H23 > 100 µM | NCI-H460 > 100 µM | NCI-H522 82.4 µM | OVCAR-3 > 100 µM | OVCAR-4 > 100 µM | OVCAR-5 > 100 µM | OVCAR-8 > 100 µM | RXF 393 > 100 µM | RXF 631 > 100 µM | SF-268 > 100 µM | SF-295 > 100 µM | SF-539 > 100 µM | SK-MEL-28 > 100 µM | SK-MEL-2 > 100 µM | SK-MEL-5 > 100 µM | SK-OV-3 > 100 µM | SN12C > 100 µM | SNB-19 > 100 µM | SNB-75 > 100 µM | SNB-78 > 100 µM | SR > 100 µM | TK-10 > 100 µM | U-251 > 100 µM | UACC-257 > 100 µM | UACC-62 > 100 µM | UO-31 > 100 µM | XF498 > 100 µM
> 100 µM: HCT-15

CCN(CC)CC(C(=O)Nc1c(C)cccc1C)/C(C)=N\NC(=O)c1ccncc1 (stereo not drawn)
inactive: 786-0 > 100 µM | A498 > 100 µM | A549 > 100 µM | ACHN > 100 µM | CAKI-1 > 100 µM | COLO 205 > 100 µM | DLD-1 > 100 µM | DMS-114 > 100 µM | DMS-273 > 100 µM | HCC 2998 > 100 µM | HCT-116 > 100 µM | HOP-18 > 100 µM | HOP-62 > 100 µM | HOP-92 > 100 µM | HT-29 > 100 µM | IGROV-1 > 100 µM | KM12 > 100 µM | LOX IMVI > 100 µM | LXFL 529 > 100 µM | M14 > 100 µM | M19-MEL > 100 µM | MOLT-4 > 100 µM | Malme-3M > 100 µM | NCI-H226 > 100 µM | NCI-H23 > 100 µM | NCI-H460 > 100 µM | NCI-H522 > 100 µM | OVCAR-3 > 100 µM | OVCAR-4 > 100 µM | OVCAR-5 > 100 µM | OVCAR-8 > 100 µM | RXF 393 > 100 µM | RXF 631 > 100 µM | SF-268 > 100 µM | SF-295 > 100 µM | SF-539 > 100 µM | SK-MEL-28 > 100 µM | SK-MEL-2 > 100 µM | SK-MEL-5 > 100 µM | SK-OV-3 > 100 µM | SN12C > 100 µM | SNB-19 > 100 µM | SNB-75 > 100 µM | SNB-78 > 100 µM | SR > 100 µM | TK-10 > 100 µM | U-251 > 100 µM | UACC-257 > 100 µM | UO-31 > 100 µM | XF498 > 100 µM
> 100 µM: HCT-15

CCCCN(CCCC)C(=Nc1ccccc1)N(CCCC)CCCC
inactive: 786-0 3.3 µM | A498 9.62 µM | A549 7.62 µM | ACHN 3.55 µM | CCRF-CEM 3.89 µM | COLO 205 2.77 µM | DLD-1 6.38 µM | DMS-114 1.59 µM | DMS-273 4.61 µM | EKVX 4.35 µM | HCC 2998 4.32 µM | HCT-116 1.67 µM | HL-60 1.79 µM | HOP-18 1.76 µM | HOP-62 6.87 µM | HOP-92 1.62 µM | HT-29 2.36 µM | IGROV-1 3.15 µM | K562 2.09 µM | KM12 3.7 µM | LOX IMVI 3.15 µM | LXFL 529 5.36 µM | M19-MEL 8.39 µM | MOLT-4 2.72 µM | Malme-3M 7.94 µM | NCI-H23 2.19 µM | NCI-H460 3.34 µM | NCI-H522 2.17 µM | OVCAR-3 3.3 µM | OVCAR-5 5.78 µM | OVCAR-8 9.25 µM | RPMI-8226 1.8 µM | RXF 393 5.02 µM | RXF 631 10.5 µM | SF-268 11.2 µM | SF-295 5.38 µM | SF-539 11.4 µM | SK-MEL-28 3.1 µM | SK-MEL-2 6.64 µM | SK-OV-3 8.43 µM | SNB-19 6.81 µM | SNB-75 16.4 µM | SNB-78 11.1 µM | SW-620 3.54 µM | TK-10 10.1 µM | U-251 1.95 µM | UACC-257 7.41 µM | UO-31 2.81 µM | XF498 2.05 µM
active: KM-20L2 0.851 µM
